The text below walks through data of patent publication US10581022B2, “Polymerizable liquid crystal compound, composition, liquid crystal polymerization film-kind thereof and use thereof” (JNC CORPORATION, priority 2015, dated 2020).

The data set is described as follows: Solubility of compound in solvent. It counts as physicochemical. Further details: key: Good: represents that the compound was completely dissolved; Poor: represents that an insoluble matter remained. The conditions noted are these: 40° C., after 30 minutes, visual. As for the experimental part: With regard to various solvents, a specific amount of compound (1-1-1-1) was added to various solvents each, and the resulting mixture was warmed in warm water at 40° C., and an aspect after 30 minutes was visually confirmed. A similar method was tried in compound (1-1-2-1), compound (C-1) and compound (C-2) in place of compound (1-1-1-1).
An amount of the compound added as described in Table 4 is expressed in terms of a relative value when a total weight of the solvent and the compound is taken as 100% by weight. A term “Good” in Table 4 represents that the compound was completely dissolved, and a term “Poor” in Table 4 represents that an insoluble matter remained.

Consider `C=CC(=O)OCCCCCCOc1ccc(CCC(=O)O[C@H]2CC[C@H](C(=O)Oc3ccc(OC(=O)[C@H]4CC[C@H](OC(=O)CCc5ccc(OCCCCCCOC(=O)C=C)cc5)CC4)c4nc(-c5ccccc5)cnc34)CC2)cc1` [Compound (1-1-1-1)], for which, where the note is “15% by weight of compound”, the “solubility in 2-acetoxy-1-methoxypropane” value was “Poor”, the “solubility in 4-methyl-2-pentanone” value was “Poor”, the solubility in cyclohexanone entry is recorded as “Good” and the solubility in methoxybenzene result is on record as “Good”. Besides, under “30% by weight of compound”, the “solubility in 2-acetoxy-1-methoxypropane” value is reported as “Poor”, the “solubility in 4-methyl-2-pentanone” value is on record as “Poor”, the solubility in cyclohexanone entry is listed as “Good” and the solubility in methoxybenzene result is recorded as “Good”.

As for `C=CC(=O)OCCCCOc1ccc(OC(=O)C2CCC(C(=O)Oc3ccc(OC(=O)C4CCC(C(=O)Oc5ccc(OCCCCOC(=O)C=C)cc5)CC4)c(C=NNc4nc5ccccc5s4)c3)CC2)cc1` (centres unmarked) [Compound (C-2)], under “15% by weight of compound”, the “solubility in 2-acetoxy-1-methoxypropane” value was “Poor”, the “solubility in 4-methyl-2-pentanone” value is reported as “Poor”, the solubility in cyclohexanone result is given as “Good” and the solubility in methoxybenzene entry is “Good”. Moreover, under “30% by weight of compound”, the “solubility in 2-acetoxy-1-methoxypropane” value is given as “Poor”, the “solubility in 4-methyl-2-pentanone” value is on record as “Poor”, the solubility in cyclohexanone entry is listed as “Poor” and the solubility in methoxybenzene result is listed as “Poor”.

On to `C=CC(=O)OCCCCCCOc1ccc(CCC(=O)O[C@H]2CC[C@H](C(=O)Oc3ccc(OC(=O)[C@H]4CC[C@H](OC(=O)CCc5ccc(OCCCCCCOC(=O)C=C)cc5)CC4)c4nc(-c5ccccc5)c(C)nc34)CC2)cc1` [Compound (1-1-2-1)], for which, where the note is “15% by weight of compound”, the “solubility in 2-acetoxy-1-methoxypropane” value is “Good”, the “solubility in 4-methyl-2-pentanone” value was “Good”, the solubility in cyclohexanone result was “Good” and the solubility in methoxybenzene entry is listed as “Good”. Moreover, for the setting “30% by weight of compound”, the “solubility in 2-acetoxy-1-methoxypropane” value was “Poor”, the “solubility in 4-methyl-2-pentanone” value is “Poor”, the solubility in cyclohexanone result is “Good” and the solubility in methoxybenzene result is reported as “Good”.

Consider `C=CC(=O)OCCCCOc1ccc(OC(=O)[C@H]2CC[C@H](C(=O)Oc3ccc(OC(=O)[C@H]4CC[C@H](C(=O)Oc5ccc(OCCCCOC(=O)C=C)cc5)CC4)c4sc(-c5ccccc5)nc34)CC2)cc1` [Compound (C-1)], for which, under “15% by weight of compound”, the “solubility in 2-acetoxy-1-methoxypropane” value is reported as “Poor”, the “solubility in 4-methyl-2-pentanone” value is listed as “Poor”, the solubility in cyclohexanone result was “Good” and the solubility in methoxybenzene entry is “Good”. For the same compound, where the note is “30% by weight of compound”, the “solubility in 2-acetoxy-1-methoxypropane” value is reported as “Poor”, the “solubility in 4-methyl-2-pentanone” value is “Poor”, the solubility in cyclohexanone result is recorded as “Poor” and the solubility in methoxybenzene entry is given as “Poor”.
